Laboratory results as given in ChEMBL document CHEMBL1152560, “Substituted 2-arylbenzothiazoles as kinase inhibitors: hit-to-lead optimization” (Bioorg Med Chem, 2009).

What was measured:
[1] = target: T1, Ephrin type-B receptor 2 (Homo sapiens) (UniProt P29323); assay: Residual activity of EPHB2 at 0.1 uM by microplate scintillation counting
T1 sequence (whole entry): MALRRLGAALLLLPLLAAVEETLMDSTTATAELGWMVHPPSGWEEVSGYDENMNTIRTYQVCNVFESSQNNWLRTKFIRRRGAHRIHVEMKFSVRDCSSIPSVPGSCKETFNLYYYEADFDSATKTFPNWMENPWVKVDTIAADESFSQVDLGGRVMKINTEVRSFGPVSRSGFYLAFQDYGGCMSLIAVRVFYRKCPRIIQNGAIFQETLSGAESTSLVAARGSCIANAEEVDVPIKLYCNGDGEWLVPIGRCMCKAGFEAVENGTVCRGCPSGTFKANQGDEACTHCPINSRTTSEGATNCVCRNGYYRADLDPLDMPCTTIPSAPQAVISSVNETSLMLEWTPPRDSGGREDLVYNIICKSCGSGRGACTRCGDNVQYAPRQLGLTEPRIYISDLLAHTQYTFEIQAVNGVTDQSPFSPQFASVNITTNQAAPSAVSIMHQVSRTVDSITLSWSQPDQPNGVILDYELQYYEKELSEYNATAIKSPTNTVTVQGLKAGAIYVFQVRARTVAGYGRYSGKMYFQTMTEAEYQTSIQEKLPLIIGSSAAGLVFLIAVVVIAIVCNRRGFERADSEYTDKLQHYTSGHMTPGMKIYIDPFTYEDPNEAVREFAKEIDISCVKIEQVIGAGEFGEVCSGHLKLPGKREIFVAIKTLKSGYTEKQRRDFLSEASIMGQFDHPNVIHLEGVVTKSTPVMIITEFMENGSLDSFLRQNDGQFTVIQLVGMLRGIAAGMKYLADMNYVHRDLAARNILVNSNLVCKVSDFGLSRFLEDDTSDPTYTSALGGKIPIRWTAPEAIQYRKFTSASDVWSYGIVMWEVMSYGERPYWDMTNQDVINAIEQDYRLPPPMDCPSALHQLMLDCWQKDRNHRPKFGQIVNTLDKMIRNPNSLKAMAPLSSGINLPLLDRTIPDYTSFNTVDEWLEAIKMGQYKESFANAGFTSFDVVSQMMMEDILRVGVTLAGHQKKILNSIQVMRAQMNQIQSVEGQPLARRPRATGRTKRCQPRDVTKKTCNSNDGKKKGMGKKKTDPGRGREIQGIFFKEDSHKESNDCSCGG

[2] = target: Activated CDC42 kinase 1 (Homo sapiens) (UniProt Q07912); assay: Residual activity of ACK1 at 0.1 uM by microplate scintillation counting
Activated CDC42 kinase 1 (Homo sapiens), sequence (Q07912 whole entry, looked up): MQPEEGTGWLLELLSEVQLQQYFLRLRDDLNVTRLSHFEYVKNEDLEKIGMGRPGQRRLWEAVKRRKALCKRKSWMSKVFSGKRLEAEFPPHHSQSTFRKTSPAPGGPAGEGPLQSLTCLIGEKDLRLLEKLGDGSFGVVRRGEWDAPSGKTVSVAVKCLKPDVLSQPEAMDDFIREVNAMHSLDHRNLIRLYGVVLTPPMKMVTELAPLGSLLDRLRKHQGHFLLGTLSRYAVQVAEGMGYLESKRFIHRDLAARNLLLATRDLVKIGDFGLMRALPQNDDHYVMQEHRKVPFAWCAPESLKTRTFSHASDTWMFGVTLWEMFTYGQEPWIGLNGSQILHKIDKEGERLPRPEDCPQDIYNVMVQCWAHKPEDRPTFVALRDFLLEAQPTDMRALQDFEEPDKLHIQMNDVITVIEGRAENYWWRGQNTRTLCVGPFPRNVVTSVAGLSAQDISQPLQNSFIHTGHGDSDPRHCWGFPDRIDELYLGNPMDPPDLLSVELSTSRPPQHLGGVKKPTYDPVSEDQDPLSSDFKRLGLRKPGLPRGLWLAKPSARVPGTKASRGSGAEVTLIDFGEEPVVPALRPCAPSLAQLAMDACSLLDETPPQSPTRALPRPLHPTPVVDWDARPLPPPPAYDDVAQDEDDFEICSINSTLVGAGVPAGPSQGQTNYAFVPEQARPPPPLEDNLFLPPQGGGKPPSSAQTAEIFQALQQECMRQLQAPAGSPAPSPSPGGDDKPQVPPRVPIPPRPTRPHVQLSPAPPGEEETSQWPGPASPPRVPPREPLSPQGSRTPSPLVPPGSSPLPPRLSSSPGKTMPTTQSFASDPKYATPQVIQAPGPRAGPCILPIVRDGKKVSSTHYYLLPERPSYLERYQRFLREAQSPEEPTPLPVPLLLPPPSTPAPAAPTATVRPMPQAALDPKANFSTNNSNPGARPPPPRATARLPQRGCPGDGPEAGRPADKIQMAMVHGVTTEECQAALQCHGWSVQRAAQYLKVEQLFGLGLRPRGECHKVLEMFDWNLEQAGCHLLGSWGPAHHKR

[3] = target: T2, Cytoplasmic tyrosine-protein kinase BMX (Homo sapiens) (UniProt P51813); assay: Residual activity of BMX at 0.1 uM by microplate scintillation counting
T2 sequence (whole entry): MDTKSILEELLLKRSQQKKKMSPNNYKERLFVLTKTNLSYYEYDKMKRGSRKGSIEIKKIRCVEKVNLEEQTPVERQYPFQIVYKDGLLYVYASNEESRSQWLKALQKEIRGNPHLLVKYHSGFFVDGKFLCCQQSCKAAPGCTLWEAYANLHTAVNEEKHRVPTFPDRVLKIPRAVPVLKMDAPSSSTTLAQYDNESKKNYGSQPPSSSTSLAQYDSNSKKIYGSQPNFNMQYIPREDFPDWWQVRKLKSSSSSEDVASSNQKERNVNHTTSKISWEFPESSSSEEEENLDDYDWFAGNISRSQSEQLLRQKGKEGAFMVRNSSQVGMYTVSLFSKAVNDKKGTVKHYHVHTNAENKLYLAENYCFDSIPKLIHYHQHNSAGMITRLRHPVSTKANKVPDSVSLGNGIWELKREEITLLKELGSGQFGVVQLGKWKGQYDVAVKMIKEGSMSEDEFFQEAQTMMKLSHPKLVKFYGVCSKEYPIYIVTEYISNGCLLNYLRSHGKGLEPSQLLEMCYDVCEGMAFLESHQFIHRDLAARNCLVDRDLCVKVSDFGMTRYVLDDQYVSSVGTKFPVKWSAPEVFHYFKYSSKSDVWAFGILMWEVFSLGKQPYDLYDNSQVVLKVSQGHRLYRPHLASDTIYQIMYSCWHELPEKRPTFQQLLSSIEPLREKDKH

[4] = target: T3, cGMP-dependent protein kinase 2 (Homo sapiens) (UniProt Q13237); assay: Residual activity of PRKG2 at 10 uM by microplate scintillation counting
T3 sequence (whole entry): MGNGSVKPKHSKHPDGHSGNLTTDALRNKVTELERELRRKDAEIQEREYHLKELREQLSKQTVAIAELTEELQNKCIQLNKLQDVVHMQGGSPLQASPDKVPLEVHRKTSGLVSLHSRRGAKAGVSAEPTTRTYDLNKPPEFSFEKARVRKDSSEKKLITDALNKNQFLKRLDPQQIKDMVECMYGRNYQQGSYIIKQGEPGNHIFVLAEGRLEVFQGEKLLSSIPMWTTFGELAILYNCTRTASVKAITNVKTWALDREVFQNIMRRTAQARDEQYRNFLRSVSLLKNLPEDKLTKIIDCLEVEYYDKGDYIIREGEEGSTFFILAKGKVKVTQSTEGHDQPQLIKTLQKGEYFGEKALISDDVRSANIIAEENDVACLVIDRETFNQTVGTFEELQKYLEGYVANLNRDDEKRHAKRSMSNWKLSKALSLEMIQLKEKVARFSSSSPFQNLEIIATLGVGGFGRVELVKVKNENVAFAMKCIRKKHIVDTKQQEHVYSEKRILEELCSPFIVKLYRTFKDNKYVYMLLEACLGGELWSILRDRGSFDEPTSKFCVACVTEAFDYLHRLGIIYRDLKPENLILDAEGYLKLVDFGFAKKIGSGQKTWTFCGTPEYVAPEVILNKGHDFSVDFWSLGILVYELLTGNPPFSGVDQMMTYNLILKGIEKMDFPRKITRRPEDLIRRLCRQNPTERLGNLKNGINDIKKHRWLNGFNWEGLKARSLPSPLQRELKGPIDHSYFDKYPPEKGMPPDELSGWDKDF

[5] = target: Serine/threonine-protein kinase 16 (Homo sapiens) (UniProt O75716); assay: Residual activity of TSF1 at 0.1 uM by microplate scintillation counting
Serine/threonine-protein kinase 16 (Homo sapiens), sequence (O75716 whole entry): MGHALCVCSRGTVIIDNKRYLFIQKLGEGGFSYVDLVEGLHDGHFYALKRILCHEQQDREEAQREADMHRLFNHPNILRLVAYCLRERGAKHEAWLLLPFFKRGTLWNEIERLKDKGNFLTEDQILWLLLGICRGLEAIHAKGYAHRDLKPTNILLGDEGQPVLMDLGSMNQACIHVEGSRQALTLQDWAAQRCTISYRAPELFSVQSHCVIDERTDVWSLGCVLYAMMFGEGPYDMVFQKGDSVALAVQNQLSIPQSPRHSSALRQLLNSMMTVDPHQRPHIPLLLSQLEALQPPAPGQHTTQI

[6] = target: Non-receptor tyrosine-protein kinase TYK2 (Homo sapiens) (UniProt P29597); assay: Residual activity of TYK2 at 10 uM by microplate scintillation counting
Non-receptor tyrosine-protein kinase TYK2 (Homo sapiens), sequence (P29597 whole entry): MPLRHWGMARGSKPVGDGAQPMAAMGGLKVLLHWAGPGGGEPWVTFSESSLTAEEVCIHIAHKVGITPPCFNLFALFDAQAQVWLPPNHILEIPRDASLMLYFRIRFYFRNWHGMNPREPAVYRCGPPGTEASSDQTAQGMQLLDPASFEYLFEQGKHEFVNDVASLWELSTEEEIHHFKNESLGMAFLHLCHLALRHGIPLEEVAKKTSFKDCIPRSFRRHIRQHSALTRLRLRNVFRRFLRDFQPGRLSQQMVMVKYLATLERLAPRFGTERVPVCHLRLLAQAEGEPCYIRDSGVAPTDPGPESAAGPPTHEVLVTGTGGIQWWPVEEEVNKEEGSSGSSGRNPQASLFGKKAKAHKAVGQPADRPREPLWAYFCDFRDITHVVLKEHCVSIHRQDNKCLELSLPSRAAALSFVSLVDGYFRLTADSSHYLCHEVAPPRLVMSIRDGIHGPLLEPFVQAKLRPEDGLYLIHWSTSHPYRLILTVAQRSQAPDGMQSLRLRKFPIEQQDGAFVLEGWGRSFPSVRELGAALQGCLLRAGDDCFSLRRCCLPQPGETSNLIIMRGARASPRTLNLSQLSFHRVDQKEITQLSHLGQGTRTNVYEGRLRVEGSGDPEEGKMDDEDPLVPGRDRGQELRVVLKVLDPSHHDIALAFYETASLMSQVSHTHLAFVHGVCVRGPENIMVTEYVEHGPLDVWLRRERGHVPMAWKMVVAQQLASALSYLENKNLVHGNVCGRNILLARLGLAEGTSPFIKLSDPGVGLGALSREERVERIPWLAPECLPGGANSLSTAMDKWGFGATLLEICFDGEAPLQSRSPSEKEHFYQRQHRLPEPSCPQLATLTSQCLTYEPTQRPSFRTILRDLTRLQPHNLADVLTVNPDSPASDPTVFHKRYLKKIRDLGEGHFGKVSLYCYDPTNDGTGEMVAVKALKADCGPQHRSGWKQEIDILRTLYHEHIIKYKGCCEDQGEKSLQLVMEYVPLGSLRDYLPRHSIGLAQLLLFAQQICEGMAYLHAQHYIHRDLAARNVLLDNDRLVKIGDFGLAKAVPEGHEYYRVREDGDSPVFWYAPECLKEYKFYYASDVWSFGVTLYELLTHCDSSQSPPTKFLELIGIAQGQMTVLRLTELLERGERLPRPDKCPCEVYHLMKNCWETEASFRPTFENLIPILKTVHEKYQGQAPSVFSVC

SMILES | residual activity [1] | residual activity [2] | residual activity [3] | residual activity [4] | residual activity [5] | residual activity [6]
COc1cc2c(Oc3ccc(-c4nc5ccccc5s4)cc3F)ncnc2cc1OCCCN1CCN(C)CC1 | 98% | 87% | 116% | 96% | 102% | 55%
COc1cc2c(Oc3ccc(-c4nc5ccccc5s4)cc3)ncnc2cc1OCCCN1CCCC1 | 97% | 105% | 94% | 92% | 93% | 72%
COc1cc2c(Oc3ccc(-c4nc5ccccc5s4)cc3)ncnc2cc1OCCCN1CCN(C)CC1 | 99% | 96% | 117% | 119% | 100% | 72%
